Results taken from paper PMC10374108, “Structural and biochemical characterization of the key components of an auxin degradation operon from the rhizosphere bacterium Variovorax” (PLOS Biology, 2023).
Values joined by “and” are separate entries in the source; they are usually repeats but may differ in a detail not shown here. Equal values may be shown once. “Also recorded” adds a separate entry of the source. Read-outs that look alike come from different tables or passages of the source.

What was measured:
IadK2 [1] = biological target: IadK2 (Variovorax paradoxus, UniProt T1X8R6); assay: ITC, auxins binding to IadK2
Experimental: (§1) ITC experiments were performed using a MicroCal PEAQ-ITC system (Malvern). All the experiments were performed at […] in a buffer containing 25 mM Tris-HCl (pH 7.5) and 150 mM NaCl (unless otherwise stated). […] Data was analyzed using the MicroCal PEAQ-ITC analysis software. All the measurements were repeated at least 2 times.

IadK2 mutants [2] = biological target: IadK2 mutants (Variovorax paradoxus, UniProt T1X8R6, R199A); assay: ITC, IAA binding to IadK2 mutants; set-up: species or system Variovorax paradoxus CL14; details: Kd
Experimental: as §1

IadK2 mutants [3] = biological target: IadK2 mutants (Variovorax paradoxus, UniProt T1X8R6, S104V); assay: ITC, IAA binding to IadK2 mutants; set-up: species or system Variovorax paradoxus CL14; details: Kd
Experimental: as §1

IadK2 mutants [4] = biological target: IadK2 mutants (Variovorax paradoxus, UniProt T1X8R6, S104V/W172L); assay: ITC, IAA binding to IadK2 mutants; set-up: species or system Variovorax paradoxus CL14
Experimental: as §1

IadK2 mutants [5] = biological target: IadK2 mutants (Variovorax paradoxus, UniProt T1X8R6, W172A); assay: ITC, IAA binding to IadK2 mutants; set-up: species or system Variovorax paradoxus CL14; details: IadK2 mutant W172A, replicates
Experimental: as §1

IadK2 mutants [6] = biological target: IadK2 mutants (Variovorax paradoxus, UniProt T1X8R6, Y311A); assay: ITC, IAA binding to IadK2 mutants; set-up: species or system Variovorax paradoxus CL14; details: Kd
Experimental: as §1

IadK2 mutants [7] = assay: ITC, IAA binding to IadK2 mutants; set-up: species or system Variovorax paradoxus CL14; details: IadK2 mutant W172L, replicates
Experimental: as §1

IadC [8] = biological target: T1, IadC (Variovorax paradoxus, UniProt C5CSP5); assay: ITC, IAA binding to IadC; set-up: species or system Variovorax paradoxus CL14
T1 sequence (C5CSP5 1-330): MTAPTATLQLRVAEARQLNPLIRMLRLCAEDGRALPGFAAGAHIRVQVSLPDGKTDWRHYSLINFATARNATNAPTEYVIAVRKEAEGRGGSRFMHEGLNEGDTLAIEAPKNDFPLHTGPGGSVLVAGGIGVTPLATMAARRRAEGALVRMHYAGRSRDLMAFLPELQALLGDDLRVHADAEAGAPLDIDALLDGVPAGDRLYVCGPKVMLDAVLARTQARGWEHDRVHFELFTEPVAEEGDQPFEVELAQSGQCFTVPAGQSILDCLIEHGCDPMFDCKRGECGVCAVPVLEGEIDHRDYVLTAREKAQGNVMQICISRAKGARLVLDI
Experimental: as §1

IadF = IadF (Variovorax paradoxus, UniProt A0A0H2MF82); assay: ITC, IAA binding to IadF; set-up: species or system Variovorax paradoxus CL14
Experimental: as §1

IadI = IadI (Variovorax paradoxus, UniProt A0A0H2M433); assay: ITC, IAA binding to IadI; set-up: species or system Variovorax paradoxus CL14
Experimental: as §1

IadJ = IadJ (Variovorax paradoxus, UniProt A0A0H2M0A9); assay: ITC, IAA binding to IadJ; set-up: species or system Variovorax paradoxus CL14
Experimental: as §1

IadK2 [9] = assay: Thermal shift assay (TSA), IadK2 with IAA and analogs; assay type: binding, Variovorax paradoxus CL14
Experimental: (§2) Ligands concentrations were tested at 2- to […] excess (10 to 1,000 μM) relative to the proteins (5 μM). The fluorescence dye SYPRO Orange at a final of 200-fold dilution was used to monitor the unfolding of proteins. The protein and ligand were incubated for 10 min at room temperature before the addition of SYPRO Orange dye. The QuantStudio 1 Plus real-time PCR system (Thermo Fisher) was used to control the temperature increasing from […] to […] with an increment of […] and to monitor the fluorescence (excitation: 520 ± 10 nm and emission: 558 ± 10 nm). Each tested group was run in triplicate and repeated. Data was imported to the Protein Thermal Shift software for analysis and plotting.

IadK2 mutants [10] = assay: Thermal shift assay (TSA), IadK2 mutants and IAA; assay type: binding, Variovorax paradoxus CL14; set-up: unit not given here; details: replicates
Experimental: as §2

IadK3 = assay: Thermal shift assay (TSA), IadK3 with IAA and analogs; assay type: binding, Variovorax paradoxus CL14; details: IadK3 with IAA, replicates
Experimental: as §2

IadC [11] = biological target: T1, IadC; assay: In vitro IAA transformation assay, IadC alone; assay type: biochemical, Variovorax paradoxus CL14; details: result in words
Experimental: In vitro assay was performed to test the capability of IadC/D/E enzymes encoded by the iad operon in transforming IAA and analogs. The reaction mixture was composed of 100 mM Tris-HCl (pH7.5), 250 μM reduced NADH, 10 μM ammonium iron (II) sulfate, and 3 μM of each enzyme component. […] The mixture was vortexed periodically to introduce oxygen for the reaction and was boiled to stop the reaction. After pelleting the precipitants, the supernatant was collected and mixed with 2 volumes of Salkowski reagent made of 0.5 M ferric chloride and 35% perchloric acid for the quantification of residual substrate by measuring the adsorption at 530 nm.

MarR = biological target: MarR; set-up: method as in Conway et al. 2022; details: MarR domains, high affinity IAA binding; ref Conway et al. 2022; cited from earlier work

IadK2 mutants (Variovorax paradoxus, UniProt T1X8R6, Y311A), sequence (T1X8R6 entry or part of it Y311A): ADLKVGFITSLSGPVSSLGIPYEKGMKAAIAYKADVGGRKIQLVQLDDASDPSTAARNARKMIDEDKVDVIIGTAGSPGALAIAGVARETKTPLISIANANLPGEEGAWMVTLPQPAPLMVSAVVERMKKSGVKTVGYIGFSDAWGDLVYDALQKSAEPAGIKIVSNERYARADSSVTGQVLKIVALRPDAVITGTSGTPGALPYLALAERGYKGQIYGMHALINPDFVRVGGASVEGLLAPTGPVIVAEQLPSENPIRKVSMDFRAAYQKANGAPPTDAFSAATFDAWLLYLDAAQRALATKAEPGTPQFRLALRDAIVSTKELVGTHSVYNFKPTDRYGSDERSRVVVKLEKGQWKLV
IadK2 mutants (Variovorax paradoxus, UniProt T1X8R6, S104V), sequence (T1X8R6 entry or part of it S104V): as the sequence (T1X8R6 entry or part of it Y311A) above, with S77V, A284Y counted along it
IadK2 mutants (Variovorax paradoxus, UniProt T1X8R6, R199A), sequence (T1X8R6 entry or part of it R199A): as the sequence (T1X8R6 entry or part of it Y311A) above, with R172A, A284Y counted along it
IadF, sequence (A0A0H2MF82 entry or part of it): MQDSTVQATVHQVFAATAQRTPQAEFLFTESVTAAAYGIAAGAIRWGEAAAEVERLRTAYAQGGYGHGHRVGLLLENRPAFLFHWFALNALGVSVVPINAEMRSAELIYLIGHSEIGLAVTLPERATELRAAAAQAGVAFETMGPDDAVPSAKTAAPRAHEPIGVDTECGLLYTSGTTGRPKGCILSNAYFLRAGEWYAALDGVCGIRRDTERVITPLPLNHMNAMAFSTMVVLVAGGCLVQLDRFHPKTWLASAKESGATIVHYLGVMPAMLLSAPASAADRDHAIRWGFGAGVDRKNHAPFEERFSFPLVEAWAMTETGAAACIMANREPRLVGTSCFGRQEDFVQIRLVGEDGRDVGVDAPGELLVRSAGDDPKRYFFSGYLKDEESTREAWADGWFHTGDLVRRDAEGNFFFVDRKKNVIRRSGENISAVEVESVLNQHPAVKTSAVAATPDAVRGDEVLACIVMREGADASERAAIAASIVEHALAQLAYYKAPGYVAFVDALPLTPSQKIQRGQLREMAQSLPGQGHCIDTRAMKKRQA
IadK2 mutants (Variovorax paradoxus, UniProt T1X8R6, W172A), sequence (T1X8R6 entry or part of it W172A): as the sequence (T1X8R6 entry or part of it Y311A) above, with W145A, A284Y counted along it
IadJ, sequence (A0A0H2M0A9 entry or part of it): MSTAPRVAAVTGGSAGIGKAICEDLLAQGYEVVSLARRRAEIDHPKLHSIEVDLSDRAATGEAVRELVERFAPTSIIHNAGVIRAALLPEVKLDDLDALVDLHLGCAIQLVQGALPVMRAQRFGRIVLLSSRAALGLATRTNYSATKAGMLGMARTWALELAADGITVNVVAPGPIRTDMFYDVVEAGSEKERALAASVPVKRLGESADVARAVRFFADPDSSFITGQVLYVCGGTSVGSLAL
IadI, sequence (A0A0H2M433 entry or part of it): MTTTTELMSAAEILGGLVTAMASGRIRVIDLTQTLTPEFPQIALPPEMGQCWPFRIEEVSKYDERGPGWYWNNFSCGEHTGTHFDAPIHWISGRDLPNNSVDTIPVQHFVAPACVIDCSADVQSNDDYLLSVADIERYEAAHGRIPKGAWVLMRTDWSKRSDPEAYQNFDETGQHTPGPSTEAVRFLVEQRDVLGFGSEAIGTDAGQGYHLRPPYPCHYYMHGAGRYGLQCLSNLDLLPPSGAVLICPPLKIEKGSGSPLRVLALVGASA
IadK2 mutants (Variovorax paradoxus, UniProt T1X8R6, S104V/W172L), sequence (T1X8R6 entry or part of it S104V/W172L): as the sequence (T1X8R6 entry or part of it Y311A) above, with S77V, W145L, A284Y counted along it
IadK2 (Variovorax paradoxus, UniProt T1X8R6), sequence (T1X8R6 entry or part of it): as the sequence (T1X8R6 entry or part of it Y311A) above, with A284Y counted along it

Structure (SMILES): O=C(O)Cc1c[nH]c2ccccc12 [IAA, indole-3-acetic acid]
- Kd (IadK2 [1]; ITC, biphasic isotherm, IadK2 + IAA, mean ± SEM, 3 measurements, read-out: KD1): 0.53 ± 0.08 µM
- Kd (IadK2 [1]; ITC, biphasic isotherm, IadK2 + IAA, mean ± SEM, 3 measurements, read-out: KD2): 0.009 ± 0.00305 µM
- Kd (IadK2 [1]; IadK2, ITC, replicates, read-out: Kd1): 500 nM and 600 nM (2×)
- Kd (IadK2 [1]; IadK2, ITC, replicates, read-out: Kd2): 0.0083 µM and 0.012 µM and 0.0114 µM
- Kd (IadK2 mutants [2]; IadK2 R199A, IAA, mean ± SD): 11.2 ± 1.8 µM
- Kd (IadK2 mutants [2]; IadK2 mutant R199A, replicates): 9.5 µM and 10.4 µM
- Kd (IadK2 mutants [3]; IadK2 S104V, IAA, mean ± SD): 1.1 ± 0.3 µM
- Kd (IadK2 mutants [3]; IadK2 mutant S104V, replicates): 0.88 µM and 0.9 µM and 1.5 µM
- Kd (IadK2 mutants [4]; IadK2 mutant W172L/S104V, replicates): > 100 µM
- Kd (IadK2 mutants [4]; Kd, IadK2 W172L/S104V, IAA): > 100 µM
- Kd (IadK2 mutants [4]; Kd, IadK2 mutant W172L/S104V, replicates): > 100 µM
- Kd (IadK2 mutants [5]): > 100 µM
- Kd (IadK2 mutants [5]; Kd): > 100 µM
- Kd (IadK2 mutants [6]; IadK2 Y311A, IAA, mean ± SD): 21 ± 3 µM
- Kd (IadK2 mutants [6]; IadK2 mutant Y311A, replicates): 17 µM and 24 µM and 22 µM
- Kd (IadK2 mutants [7]): weak binding
- IAA binding (ITC) (IadC [8]): no binding detected
- Kd (IadC [8]; ITC, replicates): > 100 µM
- IAA binding (ITC) (IadF): no binding detected
- Kd (IadF; ITC, replicates): > 100 µM
- IAA binding (ITC) (IadI): no binding detected
- Kd (IadI; ITC, replicates): > 100 µM
- IAA binding (ITC) (IadJ): no binding detected
- Kd (IadJ; ITC, replicates): > 100 µM
- Tm change with IAA (TSA) (IadK2 [9]; IadK2 WT, replicates, Fig 2E): 5.98
- ΔTm (IadK2 [9]; IadK2 with IAA, replicates): 5.98 °C
- stabilization of IadK2 (melting temperature, TSA) (IadK2 [9]; result in words): substantially increased the melting temperature; also recorded: most significant stabilization effect
- Tm change with IAA (TSA) (IadK2 mutants [10]; IadK2 A125G): 2.99 and 2.492 and 3.488
- Tm change with IAA (TSA) (IadK2 mutants [10]; IadK2 A125T/N126P): 1.993 and 1.495 (2×)
- Tm change with IAA (TSA) (IadK2 mutants [10]; IadK2 A249G): 3.986 and 4.485 and 5.4814
- Tm change with IAA (TSA) (IadK2 mutants [10]; IadK2 F168G): 0.4983
- Tm change with IAA (TSA) (IadK2 mutants [10]; IadK2 F308G): 1.495
- Tm change with IAA (TSA) (IadK2 mutants [10]; IadK2 H248G): 2.492 (2×) and 3.488
- Tm change with IAA (TSA) (IadK2 mutants [10]; IadK2 N126A): 3.488 (2×) and 2.99
- Tm change with IAA (TSA) (IadK2 mutants [10]; IadK2 R199A): 0.4983 and 0 (2×)
- Tm change with IAA (TSA) (IadK2 mutants [10]; IadK2 S014V/W172L): 0
- Tm change with IAA (TSA) (IadK2 mutants [10]; IadK2 S104A): 2.99 and 2.492 and 3.488
- Tm change with IAA (TSA) (IadK2 mutants [10]; IadK2 S104V): 2.492 and 1.495 and 1.993
- Tm change with IAA (TSA) (IadK2 mutants [10]; IadK2 S224A): 2.99 and 3.986 (2×)
- Tm change with IAA (TSA) (IadK2 mutants [10]; IadK2 W172A): 0.4983 and 0 (2×)
- Tm change with IAA (TSA) (IadK2 mutants [10]; IadK2 W172L): 0
- Tm change with IAA (TSA) (IadK2 mutants [10]; IadK2 Y311A): 0
- ΔTm (IadK3): 0.997 °C and -0.4983 °C and -0.9966 °C
- transformation by IadC alone (IadC [11]): neither IadD/E nor IadC alone could catalyze the transformation
- Kd (MarR): ~0.3 µM
